In patent US9493446B2, “Orexin receptor antagonists which are [ortho bi-(hetero-)aryl]-[2-(meta bi-(hetero-)aryl)-pyrrolidin-1-yl]-methanone derivatives” (Actelion Pharmaceuticals Ltd, priority 2012, dated 2016):
Like-named read-outs stand apart in the source and are kept apart here.

Assays:
orexin-1 = orexin-1 (Homo sapiens (Human), UniProt O43613); assay: Intracellular calcium measurement (FLIPR), CHO cells expressing human orexin-1 receptor, 3 nM orexin-A; format: cell-based; conditions: read-out: IC50 OX1
How it was run: (§1)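 Antagonist is added 120 min before agonist. Fluo-4 AM-loaded CHO cells carry human orexin-1 or orexin-2 receptor, and calcium is read by FLIPR.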

human orexin-2 receptor = human orexin-2 receptor (Homo sapiens (Human), UniProt O43614); assay: Intracellular calcium measurement (FLIPR), CHO cells expressing human orexin-2 receptor, 3 nM orexin-A; format: cell-based; conditions: read-out: IC50 OX2
How it was run: as §1

[1] = CHO cells expressing human orexin-1 receptor, FLIPR, 3 nM orexin-A, geometric mean if determined several times
[2] = CHO cells expressing human orexin-2 receptor, FLIPR, 3 nM orexin-A, geometric mean if determined several times

Chain of human orexin-2 receptor (O43614 whole entry): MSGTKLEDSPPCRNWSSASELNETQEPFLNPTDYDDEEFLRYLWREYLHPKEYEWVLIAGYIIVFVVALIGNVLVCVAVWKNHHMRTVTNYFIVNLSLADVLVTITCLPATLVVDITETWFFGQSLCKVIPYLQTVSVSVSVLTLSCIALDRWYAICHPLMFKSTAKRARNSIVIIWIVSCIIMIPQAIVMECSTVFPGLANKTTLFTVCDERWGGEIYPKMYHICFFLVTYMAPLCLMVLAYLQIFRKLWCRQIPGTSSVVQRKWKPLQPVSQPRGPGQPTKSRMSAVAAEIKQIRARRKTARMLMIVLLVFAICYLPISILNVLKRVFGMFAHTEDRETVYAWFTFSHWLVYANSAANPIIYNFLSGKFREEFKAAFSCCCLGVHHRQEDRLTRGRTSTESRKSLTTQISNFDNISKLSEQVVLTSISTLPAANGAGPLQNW
Chain of orexin-1 (O43613 whole entry): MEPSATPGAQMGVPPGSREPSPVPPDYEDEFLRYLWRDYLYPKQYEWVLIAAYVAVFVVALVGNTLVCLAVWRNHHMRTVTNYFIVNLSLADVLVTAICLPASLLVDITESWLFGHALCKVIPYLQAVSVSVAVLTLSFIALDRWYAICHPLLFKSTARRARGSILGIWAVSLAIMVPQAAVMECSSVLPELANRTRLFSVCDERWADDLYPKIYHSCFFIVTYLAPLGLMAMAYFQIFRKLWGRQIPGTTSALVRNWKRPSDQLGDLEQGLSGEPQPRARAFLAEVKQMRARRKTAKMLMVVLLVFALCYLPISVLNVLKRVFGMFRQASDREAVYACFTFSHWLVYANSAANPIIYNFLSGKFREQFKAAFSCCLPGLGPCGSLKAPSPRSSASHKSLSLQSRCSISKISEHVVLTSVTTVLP

| IC50 (orexin-1; [1]) | IC50 (human orexin-2 receptor; [2]) | Molecule | IC50 (orexin-1) | IC50 (human orexin-2 receptor) |
| --- | --- | --- | --- | --- |
| 354 nM | 93 nM | COc1c(F)cccc1-c1noc([C@@H]2CCCN2C(=O)c2cccc(C)c2-n2nccn2)n1 [compound 197, {(S)-2-[3-(3-Fluoro-2-methoxy-phenyl)-[1,2,4]oxadiazol-5-yl]-pyrrolidin-1-yl}-(3-methyl-2-[1,2,3]triazol-2-yl-phenyl)-methanone] | – | – |
| 99 nM | 4 nM | CCOc1ncccc1-c1nc([C@@H]2CCCN2C(=O)c2cc(OC)c(F)cc2-n2nccn2)no1 [compound 332, {(S)-2-[5-(2-Ethoxy-pyridin-3-yl)-[1,2,4]oxadiazol-3-yl]-pyrrolidin-1-yl}-(4-fluoro-5-methoxy-2-[1,2,3]triazol-2-yl-phenyl)-methanone] | – | – |
| 351 nM | 121 nM | CCOc1ncccc1-c1noc([C@@H]2CCCN2C(=O)c2ccc(C(F)(F)F)cc2-n2nccn2)n1 [compound 222, {(S)-2-[3-(2-Ethoxy-pyridin-3-yl)-[1,2,4]oxadiazol-5-yl]-pyrrolidin-1-yl}-(2-[1,2,3]triazol-2-yl-4-trifluoromethyl-phenyl)-methanone] | – | – |
| 83 nM | 12 nM | COc1ccc(-n2nccn2)c(C(=O)N2CCC[C@H]2c2nc(-c3cccc(F)c3OC)no2)c1 [compound 199, {(S)-2-[3-(3-Fluoro-2-methoxy-phenyl)-[1,2,4]oxadiazol-5-yl]-pyrrolidin-1-yl}-(5-methoxy-2-[1,2,3]triazol-2-yl-phenyl)-methanone] | – | – |
| 80 nM | 292 nM | Cc1ccc(-n2nccn2)c(C(=O)N2CCC[C@H]2c2cc(-c3cccnc3OC(C)C)no2)c1 [compound 427, {(S)-2-[3-(2-Isopropoxy-pyridin-3-yl)-isoxazol-5-yl]-pyrrolidin-1-yl}-(5-methyl-2-[1,2,3]triazol-2-yl-phenyl)-methanone] | – | – |
| 1480 nM | 271 nM | CCc1cnc(-c2noc([C@@H]3CCCN3C(=O)c3cc(C)ccc3-n3nccn3)n2)cc1C [compound 61, {(S)-2-[3-(5-Ethyl-4-methyl-pyridin-2-yl)-[1,2,4]oxadiazol-5-yl]-pyrrolidin-1-yl}-(5-methyl-2-[1,2,3]triazol-2-yl-phenyl)-methanone] | – | – |
| – | – | Cc1ccc(C(=O)N2CCC[C@H]2c2cnc(-c3cccc(Cl)c3C)[nH]2)c(-n2nccn2)c1 [compound 522] | 2110 nM | 367 nM |
| 626 nM | 90 nM | Cc1cccc(C(=O)N2CCC[C@H]2c2nc(-c3cccc(F)c3C)no2)c1-n1nccn1 [compound 251, {(S)-2-[3-(3-Fluoro-2-methyl-phenyl)-[1,2,4]oxadiazol-5-yl]-pyrrolidin-1-yl}-(3-methyl-2-[1,2,3]triazol-2-yl-phenyl)-methanone] | – | – |
| 1220 nM | 47 nM | COc1cccc(-c2noc([C@@H]3CCCN3C(=O)c3cc(C)ccc3-n3nccn3)n2)c1OC [compound 59, {(S)-2-[3-(2,3-Dimethoxy-phenyl)-[1,2,4]oxadiazol-5-yl]-pyrrolidin-1-yl}-(5-methyl-2-[1,2,3]triazol-2-yl-phenyl)-methanone] | – | – |
| > 6560 nM | 3490 nM | COc1ccc(-c2nnc([C@@H]3CCCN3C(=O)c3cc(C)ccc3-n3nccn3)[nH]2)cc1 [compound 514, {(S)-2-[5-(4-Methoxy-phenyl)-4H-[1,2,4]triazol-3-yl]-pyrrolidin-1-yl}-(5-methyl-2-[1,2,3]triazol-2-yl-phenyl)-methanone] | – | – |
| 7 nM | 3 nM | CCc1ccccc1-c1nc([C@@H]2CCCN2C(=O)c2cc(C)c(C)cc2-n2nccn2)no1 [compound 401, (4,5-Dimethyl-2-[1,2,3]triazol-2-yl-phenyl)-{(S)-2-[5-(2-ethyl-phenyl)-[1,2,4]oxadiazol-3-yl]-pyrrolidin-1-yl}-methanone] | – | – |
| 239 nM | 84 nM | O=C(c1ccccc1-c1ccccc1)N1CCC[C@H]1c1nnc(-c2ccccc2OC(F)(F)F)[nH]1 [compound 508, Biphenyl-2-yl-{(S)-2-[5-(2-trifluoromethoxy-phenyl)-4H-[1,2,4]triazol-3-yl]-pyrrolidin-1-yl}-methanone] | – | – |
| 17 nM | 3 nM | Cc1cc(C(=O)N2CCC[C@H]2c2nc(-c3cccc(F)c3C)no2)c(-n2nccn2)cc1C [compound 247, (4,5-Dimethyl-2-[1,2,3]triazol-2-yl-phenyl)-{(S)-2-[3-(3-fluoro-2-methyl-phenyl)-[1,2,4]oxadiazol-5-yl]-pyrrolidin-1-yl}-methanone] | – | – |
| 1620 nM | 1790 nM | O=C(c1ncsc1-c1ccccc1)N1CCC[C@H]1c1nnc(-c2ccccc2OC(F)(F)F)[nH]1 [compound 483, (5-Phenyl-thiazol-4-yl)-{(S)-2-[5-(2-trifluoromethoxy-phenyl)-4H-[1,2,4]triazol-3-yl]-pyrrolidin-1-yl}-methanone] | – | – |
| 190 nM | 91 nM | O=C(c1cccc(F)c1-c1ccn[nH]1)N1CCC[C@H]1c1nc(-c2ccccc2C(F)(F)F)no1 [compound 183, [3-Fluoro-2-(2H-pyrazol-3-yl)-phenyl]-{(S)-2-[3-(2-trifluoromethyl-phenyl)-[1,2,4]oxadiazol-5-yl]-pyrrolidin-1-yl}-methanone] | – | – |
| 152 nM | 4 nM | Cc1ccc(-n2nccn2)c(C(=O)N2CCC[C@H]2c2cc(-c3cccc(C)c3C)no2)c1 [compound 422, {(S)-2-[3-(2,3-Dimethyl-phenyl)-isoxazol-5-yl]-pyrrolidin-1-yl}-(5-methyl-2-[1,2,3]triazol-2-yl-phenyl)-methanone] | – | – |
| 62 nM | 9 nM | Cc1ccc(-n2nccn2)c(C(=O)N2CCC[C@H]2c2nc(-c3ccccc3OC(F)F)no2)c1 [compound 33, {(S)-2-[3-(2-Difluoromethoxy-phenyl)-[1,2,4]oxadiazol-5-yl]-pyrrolidin-1-yl}-(5-methyl-2-[1,2,3]triazol-2-yl-phenyl)-methanone] | – | – |
| 135 nM | 14 nM | Cc1ccc(C(=O)N2CCC[C@H]2c2nc(-c3cccc(F)c3C)no2)c(-n2nccn2)c1 [compound 246, {(S)-2-[3-(3-Fluoro-2-methyl-phenyl)-[1,2,4]oxadiazol-5-yl]-pyrrolidin-1-yl}-(4-methyl-2-[1,2,3]triazol-2-yl-phenyl)-methanone] | – | – |
| 284 nM | 23 nM | Cc1ccc(-n2nccn2)c(C(=O)N2CCC[C@H]2c2nc(-c3cccc(OC(F)F)c3)no2)c1 [compound 43, {(S)-2-[3-(3-Difluoromethoxy-phenyl)-[1,2,4]oxadiazol-5-yl]-pyrrolidin-1-yl}-(5-methyl-2-[1,2,3]triazol-2-yl-phenyl)-methanone] | – | – |
| 13 nM | 4 nM | Cc1ccc(-n2nccn2)c(C(=O)N2CCC[C@H]2c2noc(-c3ccccc3OC(F)(F)F)n2)c1 [Example 303, (5-Methyl-2-[1,2,3]triazol-2-yl-phenyl)-{(S)-2-[5-(2-trifluoromethoxy-phenyl)-[1,2,4]oxadiazol-3-yl]-pyrrolidin-1-yl}-methanone] | – | – |
| 15 nM | 2 nM | Cc1cc(C(=O)N2CCC[C@H]2c2noc(-c3cccc(F)c3C)n2)c(-n2nccn2)cc1C [compound 339, (4,5-Dimethyl-2-[1,2,3]triazol-2-yl-phenyl)-{(S)-2-[5-(3-fluoro-2-methyl-phenyl)-[1,2,4]oxadiazol-3-yl]-pyrrolidin-1-yl}-methanone] | – | – |
| 33 nM | 1 nM | COc1cc(C(=O)N2CCC[C@H]2c2noc(-c3cc(C)ccc3C)n2)c(-n2nccn2)cc1C [compound 405, {(S)-2-[5-(2,5-Dimethyl-phenyl)-[1,2,4]oxadiazol-3-yl]-pyrrolidin-1-yl}-(5-methoxy-4-methyl-2-[1,2,3]triazol-2-yl-phenyl)-methanone] | – | – |
| 560 nM | 1780 nM | Cc1cccc(-c2ocnc2C(=O)N2CCC[C@@]2(C)c2nc(-c3ccccc3)no2)c1 [compound 539, [(S)-2-Methyl-2-(3-phenyl-[1,2,4]oxadiazol-5-yl)-pyrrolidin-1-yl]-(5-m-tolyl-oxazol-4-yl)-methanone] | – | – |
| 174 nM | 43 nM | O=C(c1cc(F)ccc1-n1nccn1)N1CCC[C@H]1c1nc(-c2ccccc2OC(F)(F)F)no1 [compound 155, (5-Fluoro-2-[1,2,3]triazol-2-yl-phenyl)-{(S)-2-[3-(2-trifluoromethoxy-phenyl)-[1,2,4]oxadiazol-5-yl]-pyrrolidin-1-yl}-methanone] | – | – |

| Molecule | IC50 (orexin-1; [1]) | IC50 (human orexin-2 receptor; [2]) | IC50 (orexin-1) | IC50 (human orexin-2 receptor) |
| --- | --- | --- | --- | --- |
| COc1cc(C(=O)N2CCC[C@H]2c2cc(-c3cccc(Cl)c3C)on2)c(-n2nccn2)cc1C [compound 433] | 19 nM | 1 nM | – | – |
| Cc1ccc(-n2cccn2)c(C(=O)N2CCC[C@H]2c2nc(-c3cccc(Cl)c3C)no2)c1 [compound 89] | 97 nM | 14 nM | – | – |
| {(S)-2-[3-(3-Chloro-phenyl)-[1,2,4]oxadiazol-5-yl]-pyrrolidin-1-yl}-thiophen-2-yl-methanone [Reference compound 2, reference compound] | 253 nM | 41 nM | – | – |
| COc1cc(C(=O)N2CCC[C@H]2c2noc(-c3ccccc3OC(F)(F)F)n2)c(-n2nccn2)cc1Cl [compound 375] | 67 nM | 6 nM | – | – |
| COc1ccc(C)c(-c2nc([C@@H]3CCCN3C(=O)c3ccc(Cl)cc3-n3nccn3)no2)c1 [compound 419] | 207 nM | – | – | 16 nM |
| Cc1c(Cl)cccc1-c1noc([C@@H]2CCCN2C(=O)c2cccc(Cl)c2-n2nccn2)n1 [compound 296] | 582 nM | – | – | 272 nM |
| Cc1ccc(-n2nccn2)c(C(=O)N2CCC[C@H]2c2nc(-c3cccc(Cl)c3)no2)c1 [compound 18] | – | 32 nM | 91 nM | – |
| Cc1cccc(-c2ocnc2C(=O)N2CCC[C@H]2c2nc(-c3cccc(Cl)c3C)no2)c1 [compound 92] | 120 nM | 53 nM | – | – |
| Cc1cc(-n2nccn2)c(C(=O)N2CCC[C@H]2c2nc(-c3ccccc3OC(F)(F)F)no2)cc1Cl [compound 299] | 25 nM | 19 nM | – | – |
